Read-outs that look alike come from different tables or passages of the source.
What was measured:
[1] = tested on: CRBN neo-substrates; assay: CRBN neo-substrate levels / IMiD activity in MOLT4 and TMD8 cells (FIGS. 10-12); type: cell-based; conditions: MOLT4 and TMD8 cells, FIGS. 11A and 11B
Source text: FIGS. 10A and 10B provide effects of compounds 73, 72, 121, and 44, and control compounds, on neo-substrate and ITK or BTK levels after twenty-four hours in MOLT4 cells (FIG. 10A) and TMD8 cells (FIG. 10B).
FIGS. 11A and 11B provide effects of compounds 44, 72, and 149, and control compounds, on CRBN neo-substrate and ITK levels in MOLT4 cells (FIG. 11A) and TMD8 cells (FIG. 11B).
FIG. 12 provides effects of compounds 130, 149, and 44 on ITK levels and IMiD activity.

[2] = target: BTK (Homo sapiens, UniProt Q06187); assay: Cellular BTK degradation assay (Total BTK HTRF) in TMD8 cells; type: cell-based; set-up: endogenous in cells; host or cells: TMD8; conditions: treatment time 24 h
Experimental: Cellular BTK Degradation Assay
In Vitro Cellular Screening to Determine Potency as Measured by DC50 Values after Four Hour Incubation
BTK levels were determined using Cisbio Total-BTK HTRF (Homologous Time-Resolved Fluorescence) kit (63ADK064PEG) according to the manufacturer's protocol. Briefly, cells were incubated in 1× supplied lysis buffer for 30 minutes. In an opaque white low volume 96-well plate (Cisbio, 66PL96005), cell lysate was combined with two different specific BTK antibodies, one conjugated with Eu^3+-Cryptate FRET donor and one conjugated with d2 FRET acceptor. Assay controls include wells containing cell lysate with only the Eu^3+-Cryptate FRET donor antibody and wells containing both HTRF antibodies and lysis buffer without cells or control lysate provided by Cisbio. HTRF ratio was calculated as (acceptor signal at 665 nm/donor signal at 620 nm)×10^4. Background HTRF levels were determined from the control well containing the donor, but no acceptor, antibody. Background HTRF levels were subtracted from all samples. Readouts were reported as HTRF levels relative to HTRF levels of DMSO-treated cells. Four-parameter non-linear regressions were performed in GraphPad Prism 7.02 to obtain DC50 values.
Cellular BTK degradation was measured as above for four hours in TMD8 cells for two diastereomers of compound 130. DC50 and EC50 values are the concentration at which the response is halfway between the top and bottom of the fitted non-linear regression curve.
The present example evaluates whether potency of BTK CTMs shifts with longer timepoints. DC50 values are typically calculated with a 4-hour timepoint.

[3] = Compound plasma exposure in mouse (CD-1), daily oral dosing, same table as the cyno DRF study; type: in vivo; conditions: CD-1, mouse
[4] = tested on: BTK; assay: Non-human primate (cyno) DRF PD, BTK remaining in B cells; type: in vivo; conditions: blood, 24 h after previous dose
Experimental: (§1) This example evaluates potency and tolerability of BTK CTMs following multiple, consecutive days of dosing and examines potency of compounds for BTK and Aiolos degradation. The data in the table below is from a study in which animals were dosed daily with the designated oral dose. Analysis for BTK and Aiolos levels was performed twenty-four hours following the previous dose.

[5] = PK data for BTK CTMs (in vivo plasma concentrations); conditions: for Vd: read-out: Volume of Distribution
Source text: The present example evaluates in vivo plasma concentrations of BTK CTMs to develop PK-PD-efficacy relationship and predict human exposure.

[6] = tested on: Aiolos; assay: Non-human primate (cyno) DRF PD, Aiolos remaining in T cells; type: in vivo; conditions: for % Aiolos Remaining in T cells: blood, 24 h after previous dose
Experimental: as §1

[7] = tested on: TMD8 BTK C481S tumor cells; assay: TMD8 BTK C481S xenograft efficacy study; type: in vivo, mouse; conditions: PO, QD
Experimental: […] Tumor growth inhibition (% TGI) were calculated on the final day of measurement using the equation [1−(T−T0/C−T0)]×100, where T and C represent the mean size of tumors in the treated (T) and control (C) groups, and T0 refers to the tumor size at randomization.
This example examines the activity of various BTK CTMs in relevant disease models, including the WT and C481S TMD8 model, which models B cell malignancies with/without inhibitor-driven BTK mutations at C481.

[8] = 30 mg/kg, 30 mg/kg PO, 1 day of dosing
[9] = 30 mg/kg, 30 mg/kg PO, 14 days of dosing
[10] = 100 mg/kg, 100 mg/kg PO, 1 day of dosing
[11] = 100 mg/kg, 100 mg/kg PO, 14 days of dosing
[12] = 300 mg/kg, 300 mg/kg PO, 1 day of dosing
[13] = 300 mg/kg, 300 mg/kg PO, 14 days of dosing
[14] = 10 mg/kg PO daily, 1 day of dosing
[15] = 10 mg/kg PO daily, 14 days of dosing
[16] = 30 mg/kg PO daily, 1 day of dosing
[17] = 30 mg/kg PO daily, 14 days of dosing
[18] = 100 mg/kg PO daily, 1 day of dosing
[19] = 100 mg/kg PO daily, 14 days of dosing
[20] = Rat Sprague-Dawley, 10 mg/kg PO

Chain of BTK (Homo sapiens, UniProt Q06187) (Q06187 whole entry): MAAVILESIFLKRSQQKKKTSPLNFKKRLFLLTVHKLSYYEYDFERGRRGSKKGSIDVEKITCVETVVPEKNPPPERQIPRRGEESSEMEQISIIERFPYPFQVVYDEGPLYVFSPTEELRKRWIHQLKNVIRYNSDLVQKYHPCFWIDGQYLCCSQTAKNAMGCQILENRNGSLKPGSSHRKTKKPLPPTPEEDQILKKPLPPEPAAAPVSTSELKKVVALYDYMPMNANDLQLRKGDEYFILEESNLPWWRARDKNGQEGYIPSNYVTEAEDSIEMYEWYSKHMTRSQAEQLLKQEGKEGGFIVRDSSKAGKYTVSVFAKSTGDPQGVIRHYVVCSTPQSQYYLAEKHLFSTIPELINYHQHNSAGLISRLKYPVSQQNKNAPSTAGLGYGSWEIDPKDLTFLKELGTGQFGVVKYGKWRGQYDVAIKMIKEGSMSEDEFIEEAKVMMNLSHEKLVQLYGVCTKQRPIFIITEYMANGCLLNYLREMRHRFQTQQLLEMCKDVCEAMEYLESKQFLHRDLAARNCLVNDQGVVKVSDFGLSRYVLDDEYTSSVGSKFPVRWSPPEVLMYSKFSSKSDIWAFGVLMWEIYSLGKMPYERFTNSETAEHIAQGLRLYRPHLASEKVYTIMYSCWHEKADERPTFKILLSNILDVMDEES

SMILES: NC(=O)c1ncc(N2CCCCC2)nc1Nc1ccc(C2CCN(C[C@@H]3CCN(c4ccc5c(c4)C(=O)N(C4CCC(=O)NC4=O)C5=O)C3)CC2)cc1 (some centres unmarked) [Compound 149]
- effect on CRBN neo-substrate levels in cells [1]: some effect
- DC50 [2]: 2.3 nM
- AUC [3, 8]: 12.2 µM·h
- Cmax [3, 8]: 940 nM
- AUC [3, 9]: 22.8 µM·h
- Cmax [3, 9]: 1640 nM
- AUC [3, 10]: 27.7 µM·h
- Cmax [3, 10]: 2050 nM
- AUC [3, 11]: 33.4 µM·h
- Cmax [3, 11]: 2410 nM
- AUC [3, 12]: 38.6 µM·h
- Cmax [3, 12]: 2610 nM
- AUC [3, 13]: 64.2 µM·h
- Cmax [3, 13]: 4100 nM
- % BTK Remaining in B cells [4, 14]: 9%
- % BTK Remaining in B cells [4, 15]: 7%
- % BTK Remaining in B cells [4, 16]: 4%
- % BTK Remaining in B cells [4, 17]: 6%
- % BTK Remaining in B cells [4, 18]: 3%
- % BTK Remaining in B cells [4, 19]: 6%
- AUC ([5]; Dog Beagle, 1 mg/kg IV): 1.2 µM·h
- clearance ([5]; Dog Beagle, 1 mg/kg IV): 18.4 mL/min/kg
- Vd ([5]; Dog Beagle, 1 mg/kg IV): 7 L/kg
- AUC ([5]; Dog Beagle, 10 mg/kg PO): 0.11 µM·h
- bioavailability ([5]; Dog Beagle, 10 mg/kg PO): 0.9%
- AUC ([5]; Monkey cynomolgus, 1 mg/kg IV): 1 µM·h
- clearance ([5]; Monkey cynomolgus, 1 mg/kg IV): 22.2 mL/min/kg
- Vd ([5]; Monkey cynomolgus, 1 mg/kg IV): 7.5 L/kg
- AUC ([5]; Monkey cynomolgus, 10 mg/kg PO): 0.09 µM·h
- bioavailability ([5]; Monkey cynomolgus, 10 mg/kg PO): 0.8%
- AUC ([5]; Monkey cynomolgus, 30 mg/kg PO): 0.08 µM·h
- AUC ([5]; Mouse Balb/c, 1 mg/kg IV): 4.5 µM·h
- clearance ([5]; Mouse Balb/c, 1 mg/kg IV): 5.2 mL/min/kg
- Vd ([5]; Mouse Balb/c, 1 mg/kg IV): 1 L/kg
- AUC ([5]; Mouse Balb/c, 10 mg/kg PO): 16 µM·h
- bioavailability ([5]; Mouse Balb/c, 10 mg/kg PO): 35%
- AUC ([5]; Mouse Balb/c, 30 mg/kg PO): 27.7 µM·h
- bioavailability ([5]; Mouse Balb/c, 30 mg/kg PO): 1%
- AUC ([5]; Mouse Balb/c, 90 mg/kg PO): 37.5 µM·h
- bioavailability ([5]; Mouse Balb/c, 90 mg/kg PO): 1%
- AUC ([5]; Mouse CD-1, 1 mg/kg IV): 1.8 µM·h
- clearance ([5]; Mouse CD-1, 1 mg/kg IV): 12.6 mL/min/kg
- Vd ([5]; Mouse CD-1, 1 mg/kg IV): 1.5 L/kg
- AUC ([5]; Mouse CD-1, 10 mg/kg PO): 11.5 µM·h
- bioavailability ([5]; Mouse CD-1, 10 mg/kg PO): 64%
- AUC ([5]; Rat Sprague-Dawley, 1 mg/kg IV): 1.2 µM·h
- clearance ([5]; Rat Sprague-Dawley, 1 mg/kg IV): 19 mL/min/kg
- Vd ([5]; Rat Sprague-Dawley, 1 mg/kg IV): 2.8 L/kg
- AUC [5, 20]: 0.88 µM·h
- bioavailability [5, 20]: 7%
- Aiolos degradation ([6]; after fourteen days of dosing): demonstrated Aiolos degradation
- % Aiolos Remaining in T cells [6, 14]: 79%
- % Aiolos Remaining in T cells [6, 15]: 76%
- % Aiolos Remaining in T cells [6, 16]: 74%
- % Aiolos Remaining in T cells [6, 17]: 55%
- % Aiolos Remaining in T cells [6, 18]: 77%
- % Aiolos Remaining in T cells [6, 19]: 43%
- Tumor Growth Inhibition (relative to vehicle) ([7]; 10 mg/kg, 23 days of dosing): 27%
- Tumor Growth Inhibition (relative to vehicle) ([7]; 10 mg/kg, 24 days of dosing): 17%
- Tumor Growth Inhibition (relative to vehicle) ([7]; 30 mg/kg, 23 days of dosing): 29%
- Tumor Growth Inhibition (relative to vehicle) ([7]; 30 mg/kg, 24 days of dosing): 43%
- Tumor Growth Inhibition (relative to vehicle) ([7]; 90 mg/kg, 24 days of dosing): 59%

From patent publication US12600732B2, “Bifunctional compounds for degrading BTK via ubiquitin proteosome pathway” (NURIX THERAPEUTICS, INC., priority 2019, dated 2026)
